# US6497900B2, “Effervescent base” (priority 1997, dated 2002)
# Assay: Breakdown of acid-sensitive active substances in the effervescent system
# Type: physicochemical
# Settings: in the effervescent system according to the invention, also in a stress situation
structure (smiles),measurement,value
NC(N)=Nc1nc(CSCCC(N)=NS(N)(=O)=O)cs1 [famotidine],tendency of active substance to break down and form decomposition products,substantially lower tendency
